Among the data in patent US5491155A, “Substituted thiadiazoles, compositions containing them and their use as antimicrobial and marine antifouling agents” (The Dow Chemical Company, priority 1994, dated 1996) are MIC values, retold here.

The subject of one assay is Salmonella choleraesuis. The assay is described as follows: MIC in nutrient agar, Salmonella choleraesuis. The assay is classed as cell-based, Salmonella choleraesuis (ATCC 10708). As to conditions: Salmonella enterica, Sc, 48 hours, read-out: Minimum Inhibitory Concentration (MIC). How it is done:
(§1) The minimum inhibitory concentration (MIC) for the compounds listed in Table I is determined for bacteria, using nutrient agar, and 7 yeast and fungi, using malt yeast agar. A one percent solution of the test compound is prepared in a mixture of acetone and water.
(§2) Nutrient agar is prepared at pH 6.8, representing a neutral medium, and at pH 8.2, representing an alkaline medium. The nutrient agars are prepared by adding 23 g of nutrient agar to one-liter of deionized water. In addition, the alkaline medium is prepared by adjusting a 0.04M solution of N-(tris-(hydroxymethyl)methyl)glycine buffered deionized water with concentrated sodium hydroxide to a pH of 8.5.
(§3) The test tubes containing the agar are cooled in a water bath until the temperature of the agar is 48° C. Then, an appropriate amount of the one percent solution of the test compound is added (except in the controls where no compound is added) to the respective test tubes so that the final concentrations are 500, 250, 100, 50, 25, 10, 2.5, 1.0 and zero parts per million of the test compound in the agar, thus having a known concentration of test compound dispersed therein. The contents of the test tubes are then transferred to respective petri plates. After drying for 24 hours, the petri plates containing nutrient agar are inoculated with bacteria and those containing malt yeast agar are inoculated with yeast and fungi.
(§4) The inoculation with bacteria is accomplished by using the following procedure. Twenty-four hour-cultures of each of the bacteria are prepared by incubating the respective bacteria in tubes containing nutrient broth for 24 hours at 30° C. in a shaker. Dilutions of each of the 24 hour-cultures are made so that nine separate suspensions (one for each of the nine test bacteria) are made, each containing 10^8 colony forming units (CFU) per mL of suspension of a particular bacteria. Aliquots of 0.3 mL of each of the bacterial suspensions are used to fill the individual wells of Steer's Replicator. For each microbial suspension, 0.3 mL was used to fill three wells (i.e., three wells of 0.3 mL each) so that for the nine different bacteria, 27 wells are filled. The Steer's Replicator is then used to inoculate both the neutral and alkaline pH nutrient agar petri plates.
(§5) The inoculated petri plates are incubated at 30° C. for 48 hours and then read to determine if the test compound which is incorporated into the agar prevented growth of the respective bacteria.
(§6) Table II lists the bacteria, yeast and fungi used in the MIC test described above along with their respective American Type Culture Collection (ATCC) identification numbers.
(§7) In Tables III and IV, the MIC values of the compounds described in Table I as compared to the MIC of a standard commercial preservative (with 1-(3-chloroalkyl)-3,5,7-triaza-1-azoniaadamantane chloride as the active agent and referred to in Tables III and IV as "STANDARD I") are set forth for the bacteria organisms and yeast/fungi organisms which are listed in Table II.

In a further assay the test system is Klebsiella pneumonias. Nature of the assay: MIC in nutrient agar, Klebsiella pneumonias. It counts as cell-based, Klebsiella pneumonias (ATCC 8308). As to conditions: Kp, 48 hours, read-out: Minimum Inhibitory Concentration (MIC). How it is done:
as §1, §2, §3, §4, §5, §6, §7

For another assay, the system named is Proteus vulgaris. The assay is described as follows: MIC in nutrient agar, Proteus vulgaris. The conditions noted are these: Pv, 48 hours, read-out: Minimum Inhibitory Concentration (MIC). The assay is classed as cell-based, Proteus vulgaris (ATCC 881). As for the experimental part:
as §1, §2, §3, §4, §5, §6, §7

A further assay relates to Penicillium chrysogenum. Nature of the assay: MIC in malt yeast agar, Penicillium chrysogenum. The assay is classed as cell-based, Penicillium chrysogenum (ATCC 9480). The conditions noted are these: Pc; malt yeast agar; 30° C.; 72 hours for fungi; read-out: Minimum Inhibitory Concentration (MIC). How it is done:
as §1
(§8) Malt yeast agar is prepared by adding 3 g yeast extract and 45 g malt agar per liter of deionized water. The specific agar is dispensed in 30 mL aliquots into 25×200 mm test tubes, capped and autoclaved for 15 minutes at 115° C.
as §3
(§9) The inoculation with the yeast and fungi is accomplished as follows. Cultures of yeast and fungi are incubated for seven days on malt yeast agar at 30° C. These cultures are used to prepare suspensions by the following procedure. A suspension of each organism is prepared by adding 10 mL of sterile saline and 10 microliters of octylphenoxy polyethoxy ethanol to the agar slant of yeast or fungi. The sterile saline/octylphenoxy polyethoxy ethanol solution is then agitated with a sterile swab to suspend the microorganism grown on the slant. Each resulting suspension is diluted into sterile saline (1 part suspension: 9 parts sterile saline). Aliquots of these dilutions are placed in individual wells of Steer's Replicator and petri plates inoculated as previously described. The petri plates are incubated at 30° C. and read after 48 hours for yeast and 72 hours for fungi.
as §6, §7

The test system of the next assay is Enterobacter aerogenes. Nature of the assay: MIC in nutrient agar, Enterobacter aerogenes. The assay is classed as cell-based, Enterobacter aerogenes (ATCC 13048). As to conditions: Klebsiella aerogenes, Ea, 30° C., 48 hours, read-out: Minimum Inhibitory Concentration (MIC). How it is done: as §1, §2, §3, §4, §5, §6, §7
Another assay relates to Staphylococcus aureus. Nature of the assay: MIC in nutrient agar, Staphylococcus aureus. The assay is classed as cell-based, Staphylococcus aureus (ATCC 6538). As to conditions: Sa, 48 hours, read-out: Minimum Inhibitory Concentration (MIC). How it is done:
as §1, §2, §3, §4, §5, §6, §7

Assay [1] has as its system Pseudomonas aeruginosa (PRD-10). Nature of the assay: MIC in nutrient agar, Pseudomonas aeruginosa (PRD-10). It counts as cell-based, Pseudomonas aeruginosa (ATCC 15442). As to conditions: PRD, 48 hours, read-out: Minimum Inhibitory Concentration (MIC). How it is done: as §1, §2, §3, §4, §5, §6, §7
Another assay relates to Candida albicans. Nature of the assay: MIC in malt yeast agar, Candida albicans. The assay is classed as cell-based, Candida albicans (ATCC 10231). As to conditions: Ca; malt yeast agar; 30° C.; 48 hours for yeast; read-out: Minimum Inhibitory Concentration (MIC). How it is done:
as §1, §8, §3, §9, §6, §7

For a further assay, the system named is Saccharomyces cerevisiae. Nature of the assay: MIC in malt yeast agar, Saccharomyces cerevisiae. The assay is classed as cell-based, Saccharomyces cerevisiae (ATCC 4105). The conditions noted are these: Sc, malt yeast agar, 30° C., 48 hours for yeast, read-out: Minimum Inhibitory Concentration (MIC). How it is done:
as §1, §8, §3, §9, §6, §7

For another assay, the system named is Fusarium oxysporum. The assay is described as follows: MIC in malt yeast agar, Fusarium oxysporum. The assay is classed as cell-based, Fusarium oxysporum (ATCC 48112). As to conditions: Fo; malt yeast agar; 30° C.; 72 hours for fungi; read-out: Minimum Inhibitory Concentration (MIC). As for the experimental part: as §1, §8, §3, §9, §6, §7
The subject of another assay is Escherichia coli. The assay is described as follows: MIC in nutrient agar, Escherichia coli. It counts as cell-based, Escherichia coli (ATCC 11229). The conditions noted are these: Ec, 48 hours, read-out: Minimum Inhibitory Concentration (MIC). As for the experimental part: as §1, §2, §3, §4, §5, §6, §7
The test system of a further assay is Pseudomonas aeruginosa. Nature of the assay: MIC in nutrient agar, Pseudomonas aeruginosa (Pa). The assay is classed as cell-based, Pseudomonas aeruginosa (ATCC 10145). As to conditions: Pa, 48 hours, read-out: Minimum Inhibitory Concentration (MIC). How it is done: as §1, §2, §3, §4, §5, §6, §7
For a further assay, the system named is Trichoderma viride. The assay is described as follows: MIC in malt yeast agar, Trichoderma viride. It counts as cell-based, Trichoderma viride (ATCC 8678). The conditions noted are these: Tv; malt yeast agar; 30° C.; 72 hours for fungi; read-out: Minimum Inhibitory Concentration (MIC). As for the experimental part: as §1, §8, §3, §9, §6, §7
In a further assay the test system is Aspergillus niger. Nature of the assay: MIC in malt yeast agar, Aspergillus niger. The assay is classed as cell-based, Aspergillus niger (ATCC 16404). The conditions noted are these: An; malt yeast agar; 30° C.; 72 hours for fungi; read-out: Minimum Inhibitory Concentration (MIC). As for the experimental part: as §1, §8, §3, §9, §6, §7
The test system of the next assay is Aureobasidium pullulan. The assay is described as follows: MIC in malt yeast agar, Aureobasidium pullulan. The assay is classed as cell-based, Aureobasidium pullulan (ATCC 16622). As to conditions: Ap; malt yeast agar; 30° C.; 72 hours for fungi; read-out: Minimum Inhibitory Concentration (MIC). As for the experimental part:
as §1, §8, §3, §9, §6, §7

Another assay relates to Bacillus subtilis. Nature of the assay: MIC in nutrient agar, Bacillus subtilis. The assay is classed as cell-based, Bacillus subtilis (ATCC 8473). As to conditions: Bs, 48 hours, read-out: Minimum Inhibitory Concentration (MIC). As for the experimental part:
as §1, §2, §3, §4, §5, §6, §7

Converted amounts (≈) assume the structure as drawn. Read-outs that look alike come from different tables or passages of the source.

With `COc1nsnc1OCSC#N` [Example 7, 4-Methoxy-3-thiocyanato-methyloxo-1,2,5-thiadiazole], the MIC in the assay with Salmonella choleraesuis (pH 6.8, 30° C.) is 25 µg/mL (≈ 123 µM); with Klebsiella pneumonias (pH 6.8, 30° C.) it was less than 10 µg/mL; with Proteus vulgaris (pH 6.8, 30° C.), less than 10 µg/mL; in the assay with Penicillium chrysogenum, less than 10 µg/mL; with Enterobacter aerogenes (pH 6.8) it was 25 µg/mL (≈ 123 µM); in the assay with Staphylococcus aureus (pH 6.8, 30° C.), less than 10 µg/mL. The MIC in assay [1] (pH 6.8, 30° C.) was 25 µg/mL (≈ 123 µM); in the assay on Candida albicans, 25 µg/mL (≈ 123 µM); with Saccharomyces cerevisiae, less than 10 µg/mL; with Fusarium oxysporum it was less than 10 µg/mL; in the assay with Escherichia coli (pH 6.8, 30° C.), 25 µg/mL (≈ 123 µM); in the assay with Pseudomonas aeruginosa (pH 6.8, 30° C.) it was less than 10 µg/mL. The MIC in the assay on Trichoderma viride was 25 µg/mL (≈ 123 µM); in the assay with Aspergillus niger, less than 10 µg/mL; in the assay on Aureobasidium pullulan it was less than 10 µg/mL; in the assay on Bacillus subtilis (pH 6.8, 30° C.), less than 10 µg/mL.

As for `N#CSCOc1nsnc1OCSC#N` [Example 8, 3,4-Bis(thiocyanato-methyloxo)-1,2,5-thiadiazole], the MIC in the assay with Salmonella choleraesuis (pH 6.8, 30° C.) was determined as 25 µg/mL (≈ 96 µM); in the assay on Salmonella choleraesuis (pH 8.2, 30° C.), 50 µg/mL (≈ 192 µM); in the assay with Klebsiella pneumonias (pH 6.8, 30° C.) it was 100 µg/mL (≈ 384 µM); with Klebsiella pneumonias (pH 8.2, 30° C.), 50 µg/mL (≈ 192 µM); with Proteus vulgaris (pH 6.8, 30° C.), 25 µg/mL (≈ 96 µM); with Proteus vulgaris (pH 8.2, 30° C.) it was 25 µg/mL (≈ 96 µM). Further, the MIC in the assay on Penicillium chrysogenum is less than 10 µg/mL; with Enterobacter aerogenes (pH 6.8), 250 µg/mL (≈ 960 µM); with Enterobacter aerogenes (pH 8.2), 250 µg/mL (≈ 960 µM); with Staphylococcus aureus (pH 6.8, 30° C.), 25 µg/mL (≈ 96 µM); in the assay with Staphylococcus aureus (pH 8.2, 30° C.), 25 µg/mL (≈ 96 µM); in assay [1] (pH 6.8, 30° C.), 500 µg/mL (≈ 1920 µM). Further, the MIC came to 250 µg/mL (≈ 960 µM) in [1] (pH 8.2, 30° C.); 50 µg/mL (≈ 192 µM) in the assay with Candida albicans; 25 µg/mL (≈ 96 µM) in the assay with Saccharomyces cerevisiae; 25 µg/mL (≈ 96 µM) in the assay on Fusarium oxysporum; 50 µg/mL (≈ 192 µM) in the assay on Escherichia coli (pH 6.8, 30° C.); 100 µg/mL (≈ 384 µM) with Escherichia coli (pH 8.2, 30° C.). Further, the MIC was 250 µg/mL (≈ 960 µM) in the assay with Pseudomonas aeruginosa (pH 6.8, 30° C.); 100 µg/mL (≈ 384 µM) in the assay with Pseudomonas aeruginosa (pH 8.2, 30° C.); 50 µg/mL (≈ 192 µM) with Trichoderma viride; less than 10 µg/mL in the assay with Aspergillus niger; less than 10 µg/mL with Aureobasidium pullulan; less than 10 µg/mL in the assay on Bacillus subtilis (pH 6.8, 30° C.). Moreover, the MIC in the assay with Bacillus subtilis (pH 8.2, 30° C.) was determined as 25 µg/mL (≈ 96 µM).
